The source of these data is ChEMBL document CHEMBL5223069, “Design, synthesis and biological evaluation of vortioxetine derivatives as new COX-1/2 inhibitors in human monocytes” (Bioorg Med Chem, 2020).

The test system of data set [1] is Monocyte. Put plainly: Cytotoxicity against human monocytes assessed as reduction in cell viability at 0.01 to 10 uM incubated for 1 to 6 hrs by MTT assay. It is filed as toxicity, cell-based. The conditions noted are these: dose lower 0.01 µM, time lower 1 hrs, dose upper 10 µM, time upper 6 hrs. A general note: Tetrazolium dyes change colour on reduction, which living cells bring about.

The subject of data set [2] is Monocyte. Put plainly: Induction of superoxide anion production in human monocytes assessed as increase in reduced cytochrome C level at 0.0025 to 1 uM incubated for 1 hr. Particulars: dose 0.0025-1 µM. Format: functional, cell-based.
The subject of data set [3] is Monocyte. Put plainly: Induction of IL-6 mRNA expression in human monocytes at 1 uM incubated for 1 hr by RT-PCR analysis. It is filed as functional, cell-based.
The subject of data set [4] is Monocyte. The data set is described as follows: Induction of IL-1beta mRNA expression in human monocytes at 1 uM incubated for 1 hr by RT-PCR analysis. Format: functional, cell-based.
Data set [5] concerns Monocyte. Put plainly: Induction of TNF-alpha mRNA expression in human monocytes at 1 uM incubated for 1 hr by RT-PCR analysis. It is filed as functional, cell-based.
In data set [6] the test system is Monocyte. The data set is described as follows: Induction of IL-10 mRNA expression in human monocytes at 1 uM incubated for 1 hr by RT-PCR analysis. It is filed as functional, cell-based.
Data set [7] deals with Monocyte. Put plainly: Modulation of LPS-induced IL-6 mRNA expression in human monocytes at 1 uM preincubated for 1 hr followed by LPS stimulation and measured after 30 mins by RT-PCR analysis. Format: functional, cell-based. Particulars: time 1.5 hrs.
Data set [8] concerns Monocyte. Put plainly: Modulation of LPS-induced IL-1beta mRNA expression in human monocytes at 1 uM preincubated for 1 hr followed by LPS stimulation and measured after 30 mins by RT-PCR analysis. It is filed as functional, cell-based. The conditions noted are these: time 1.5 hrs.
Data set [9] concerns Monocyte. Put plainly: Modulation of LPS-induced TNF-alpha mRNA expression in human monocytes at 1 uM preincubated for 1 hr followed by LPS stimulation and measured after 30 mins by RT-PCR analysis. Format: functional, cell-based. The conditions noted are these: time 1.5 hrs.
In data set [10] the test system is Monocyte. The data set is described as follows: Modulation of LPS-induced IL-10 mRNA expression in human monocytes at 1 uM preincubated for 1 hr followed by LPS stimulation and measured after 30 mins by RT-PCR analysis. Format: functional, cell-based. The conditions noted are these: time 1.5 hrs.
Data set [11] addresses T1, Prostaglandin G/H synthase 2 (Homo sapiens) (UniProt P35354).
T1 sequence (whole entry): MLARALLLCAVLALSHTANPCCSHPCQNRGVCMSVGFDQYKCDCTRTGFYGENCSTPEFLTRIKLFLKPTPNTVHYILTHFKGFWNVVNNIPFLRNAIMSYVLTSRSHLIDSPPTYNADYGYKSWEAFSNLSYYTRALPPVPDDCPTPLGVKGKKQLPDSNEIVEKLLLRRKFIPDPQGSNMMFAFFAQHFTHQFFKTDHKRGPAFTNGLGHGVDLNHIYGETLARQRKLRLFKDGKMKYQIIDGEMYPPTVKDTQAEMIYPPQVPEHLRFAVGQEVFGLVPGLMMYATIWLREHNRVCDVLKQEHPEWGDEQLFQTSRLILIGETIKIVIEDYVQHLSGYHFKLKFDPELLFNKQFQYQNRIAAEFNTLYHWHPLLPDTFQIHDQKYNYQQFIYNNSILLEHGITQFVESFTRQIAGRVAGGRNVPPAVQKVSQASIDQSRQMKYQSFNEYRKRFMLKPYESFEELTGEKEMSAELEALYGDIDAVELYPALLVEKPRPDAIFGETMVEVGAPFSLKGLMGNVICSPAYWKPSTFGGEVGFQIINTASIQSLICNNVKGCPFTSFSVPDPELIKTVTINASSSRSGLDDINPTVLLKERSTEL
Particulars: dose 0.1-50 nM.
Description: Inhibition of human COX-2 at 0.1 to 50 nM by spectrophotometer analysis

For data set [12], the system named is Monocyte. The data set is described as follows: Induction of IL-6 mRNA expression in human monocytes at 7.5 nM incubated for 1 hr by RT-PCR analysis. Format: functional, cell-based.
The test system of data set [13] is Monocyte. Put plainly: Induction of IL-1beta mRNA expression in human monocytes at 7.5 nM incubated for 1 hr by RT-PCR analysis. Format: functional, cell-based.
Data set [14] relates to Monocyte. The data set is described as follows: Induction of TNF-alpha mRNA expression in human monocytes at 7.5 nM incubated for 1 hr by RT-PCR analysis. Format: functional, cell-based.
Data set [15] has as its system Monocyte. The data set is described as follows: Induction of IL-10 mRNA expression in human monocytes at 7.5 nM incubated for 1 hr by RT-PCR analysis. Format: functional, cell-based.
Data set [16] concerns Monocyte. The data set is described as follows: Modulation of LPS-induced IL-6 mRNA expression in human monocytes at 7.5 nM preincubated for 1 hr followed by LPS stimulation and measured after 30 mins by RT-PCR analysis. Format: functional, cell-based. The conditions noted are these: time 1.5 hrs.
For data set [17], the system named is Monocyte. The data set is described as follows: Modulation of LPS-induced IL-1beta mRNA expression in human monocytes at 7.5 nM preincubated for 1 hr followed by LPS stimulation and measured after 30 mins by RT-PCR analysis. Format: functional, cell-based. The conditions noted are these: time 1.5 hrs.
Data set [18] deals with Monocyte. The data set is described as follows: Modulation of LPS-induced TNF-alpha mRNA expression in human monocytes at 7.5 nM preincubated for 1 hr followed by LPS stimulation and measured after 30 mins by RT-PCR analysis. It is filed as functional, cell-based. Particulars: time 1.5 hrs.
The subject of data set [19] is Monocyte. The data set is described as follows: Modulation of LPS-induced IL-10 mRNA expression in human monocytes at 7.5 nM preincubated for 1 hr followed by LPS stimulation and measured after 30 mins by RT-PCR analysis. It is filed as functional, cell-based. The conditions noted are these: time 1.5 hrs.
Data set [20] deals with Monocyte. The data set is described as follows: Modulation of COX-1 mRNA expression in human monocytes at 7.5 nM incubated for 1 hr by RT-PCR analysis. Format: functional, cell-based.
For data set [21], the target named is Prostaglandin G/H synthase 1 (Homo sapiens) (UniProt P23219). Put plainly: Inhibition of human COX-1 at 0.1 to 50 nM by spectrophotometer analysis. Particulars: dose 0.1-50 nM.
Prostaglandin G/H synthase 1 (Homo sapiens), sequence (P23219 whole entry): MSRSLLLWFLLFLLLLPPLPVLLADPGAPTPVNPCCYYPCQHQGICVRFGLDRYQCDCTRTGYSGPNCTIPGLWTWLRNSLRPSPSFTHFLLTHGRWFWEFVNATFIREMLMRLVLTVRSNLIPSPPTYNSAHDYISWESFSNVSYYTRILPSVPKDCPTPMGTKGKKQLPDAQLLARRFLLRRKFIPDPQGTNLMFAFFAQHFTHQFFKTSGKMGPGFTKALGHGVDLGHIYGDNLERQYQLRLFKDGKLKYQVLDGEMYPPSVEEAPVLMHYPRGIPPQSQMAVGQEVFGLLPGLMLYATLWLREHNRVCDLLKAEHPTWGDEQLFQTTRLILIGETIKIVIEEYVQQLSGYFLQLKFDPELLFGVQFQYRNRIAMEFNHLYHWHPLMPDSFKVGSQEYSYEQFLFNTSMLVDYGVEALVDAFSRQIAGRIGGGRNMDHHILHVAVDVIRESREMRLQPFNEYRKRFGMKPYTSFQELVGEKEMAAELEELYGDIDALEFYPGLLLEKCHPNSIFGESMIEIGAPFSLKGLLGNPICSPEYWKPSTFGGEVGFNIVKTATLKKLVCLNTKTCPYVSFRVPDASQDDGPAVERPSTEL
In data set [22] the test system is Monocyte. Put plainly: Inhibition of PMA-induced oxidative burst in human monocytes at 0.1 to 50 nM preincubated for 1 hr followed by PMA stimulation and measured after 30 mins relative to control. Format: functional. The conditions noted are these: dose 0.1-50 nM, time 1.5 hrs.
The test system of data set [23] is Monocyte. The data set is described as follows: Inhibition of PMA-induced oxidative burst in human monocytes preincubated for 1 hr followed by PMA stimulation and measured after 30 mins. Format: functional, cell-based.
In data set [24] the test system is Monocyte. Put plainly: Inhibition of PMA-induced IL-1beta mRNA expression in human monocytes at 7.5 nM preincubated for 1 hr followed by PMA stimulation and measured after 30 mins by RT-PCR analysis. It is filed as functional, cell-based. The conditions noted are these: time 1.5 hrs.
For data set [25], the system named is Monocyte. Put plainly: Downregulation of PMA-induced TNF-alpha mRNA expression in human monocytes at 7.5 nM preincubated for 1 hr followed by PMA stimulation and measured after 30 mins by RT-PCR analysis. The conditions noted are these: time 1.5 hrs. Format: functional, cell-based.
The subject of data set [26] is Monocyte. Put plainly: Downregulation of PMA-induced IL-6 mRNA expression in human monocytes at 7.5 nM preincubated for 1 hr followed by PMA stimulation and measured after 30 mins by RT-PCR analysis. Format: functional, cell-based. Particulars: time 1.5 hrs.
In data set [27] the test system is Monocyte. The data set is described as follows: Inhibition of PMA-induced COX-2 expression in human monocytes at 7.5 nM preincubated for 1 hr followed by PMA stimulation and measured after 30 mins by RT-PCR analysis. Format: functional, cell-based. The conditions noted are these: time 1.5 hrs.

SMILES strings stand for the structures. Active and inactive are the calls of the source. No cut-off for these calls is given here.

Take `Cc1ccc(Sc2ccccc2N2CCN(Cc3ccc(Cl)cc3)CC2)c(C)c1`: in the data set with Monocyte [1], the Activity entry is listed as “Non-Toxic”. Also, the result in the data set with Monocyte [2] was inactive.
With `CS(=O)(=O)c1ccc(C2=C(c3ccccc3)C(=O)OC2)cc1`, the outcome in the data set on Monocyte [3], with Monocyte [4], with Monocyte [5], with Monocyte [6], in the data set on Monocyte [7] and with Monocyte [8] was inactive. For the same compound, the outcome in the data set with Monocyte [9] and in the data set on Monocyte [10] was inactive. The inhibition result in data set [11] is “Active”.
As to `Cc1ccc(S(=O)(=O)N2CCN(c3ccccc3Sc3ccc(C)cc3C)CC2)cc1`, the Activity result with Monocyte [1] is reported as “Non-Toxic”. In addition, the outcome with Monocyte [2] was inactive.
The corresponding values for `CC(=O)N1CCN(c2ccccc2Sc2ccc(C)cc2C)CC1` are “Non-Toxic” and “inactive”.
For `Cc1ccc(Sc2ccccc2N2CCN(S(C)(=O)=O)CC2)c(C)c1`, in that order: “Non-Toxic” and “inactive”.
For `Cc1ccc(Sc2ccccc2N2CCN(CC3CCCC3)CC2)c(C)c1`, the Activity entry in the data set with Monocyte [1] is on record as “Non-Toxic”. In addition, the result with Monocyte [12], in the data set with Monocyte [13], in the data set with Monocyte [14], in the data set on Monocyte [15], with Monocyte [16] and in the data set on Monocyte [17] was inactive. In addition, the result with Monocyte [18], in the data set on Monocyte [19], in the data set on Monocyte [20] and in the data set with Monocyte [2] was inactive. Moreover, the inhibition entry in data set [21] and in data set [11] was “Active” each time. The “inhibition (INH)” value in the data set on Monocyte [22] is 70%. This compound also showed an IC50 in the data set with Monocyte [23] of 2.7 nM.
Turning to `Cc1ccc(Sc2ccccc2N2CCNCC2)c(C)c1` [VORTIOXETINE], in the data set with Monocyte [1], the Activity result is “Non-Toxic”. Also, the outcome with Monocyte [12], with Monocyte [13], in the data set on Monocyte [14], in the data set with Monocyte [15], with Monocyte [16] and in the data set with Monocyte [17] was inactive. In addition, the outcome with Monocyte [18], in the data set with Monocyte [19], with Monocyte [20] and in the data set with Monocyte [2] was inactive. Further, in the data set on Monocyte [24], the inhibition result is “Active”. Also, the outcome with Monocyte [25] was Active. Besides, the “inhibition (INH)” value in the data set on Monocyte [22] came out at 90%. In addition, in the data set on Monocyte [23], the IC50 was 2.9 nM.
Regarding `COc1ccc2c(c1)c(CC(=O)O)c(C)n2C(=O)c1ccc(Cl)cc1`, the result in the data set with Monocyte [3], in the data set on Monocyte [4], in the data set with Monocyte [5], with Monocyte [6], in the data set with Monocyte [7] and with Monocyte [8] was inactive. Further, the result in the data set with Monocyte [9] and with Monocyte [10] was inactive.
On to `Cc1ccc(Sc2ccccc2N2CCN(Cc3ccccc3F)CC2)c(C)c1`, for which the Activity result in the data set with Monocyte [1] is reported as “Non-Toxic”. Moreover, the result in the data set with Monocyte [12], with Monocyte [13], with Monocyte [14], with Monocyte [15], in the data set on Monocyte [16] and in the data set on Monocyte [17] was inactive. Also, the result with Monocyte [18], in the data set on Monocyte [20] and in the data set with Monocyte [2] was inactive. For the same compound, the result in the data set with Monocyte [26] and in the data set on Monocyte [19] was Active. For the same compound, the inhibition result (with Monocyte [27]; in [21]; in data set [11]) was “Active” in each case. In the data set with Monocyte [22], the “inhibition (INH)” value amounted to 70%. In the data set on Monocyte [23], this compound yielded an IC50 of 6.5 nM.
Take `CCN1CCN(c2ccccc2Sc2ccc(C)cc2C)CC1`: the Activity result in the data set on Monocyte [1] is listed as “Non-Toxic”. The outcome in the data set with Monocyte [2] was inactive.
With `Cc1ccc(Sc2ccccc2N2CCN(Cc3ccccc3C(F)(F)F)CC2)c(C)c1`, the Activity entry with Monocyte [1] is reported as “Non-Toxic”. In addition, the result with Monocyte [12], with Monocyte [13], in the data set with Monocyte [14], in the data set on Monocyte [15], in the data set with Monocyte [16] and in the data set on Monocyte [17] was inactive. The result in the data set on Monocyte [18], with Monocyte [19], in the data set on Monocyte [20] and in the data set on Monocyte [2] was inactive. Further, in data set [21], the inhibition entry was “Active”. The “inhibition (INH)” value in the data set on Monocyte [22] turned out to be 80%. The IC50 with Monocyte [23] worked out at 6.3 nM.
With `Cc1ccc(Sc2ccccc2N2CCN(CC(=O)O)CC2)c(C)c1`, the Activity result with Monocyte [1] is reported as “Non-Toxic”. In addition, the result in the data set on Monocyte [12], with Monocyte [13], with Monocyte [14], with Monocyte [16], in the data set on Monocyte [17] and in the data set on Monocyte [18] was inactive. Also, the result in the data set on Monocyte [19], in the data set with Monocyte [20] and with Monocyte [2] was inactive. Further, the result with Monocyte [15] was Active. In data set [21], the inhibition result is “Active”. Also, the “inhibition (INH)” value in the data set on Monocyte [22] is listed as 90%. Further, the IC50 with Monocyte [23] turned out to be 0.35 nM.
`Cc1ccc(Sc2ccccc2N2CCN(CCO)CC2)c(C)c1`: the Activity entry with Monocyte [1] was “Non-Toxic”. Further, the outcome in the data set on Monocyte [2] was inactive.

By IC50 is commonly meant the concentration needed to halve the response being measured.
